SMILES strings stand for the structures. Values joined by “and” are separate entries in the source; they are usually repeats but may differ in a detail not shown here. Equal values may be shown once.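 48-hour exposure; five concentrations; linearly interpolated endpoints. GI50: concentration for 50% inhibition of growth. At the TGI there is no net growth.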 A value given as a limit tells only on which side of the number the result lay.

Some test systems named below: ACHN renal; M14 melanoma; MOLT-4 leukemia; OVCAR-4 ovarian; OVCAR-8 ovarian; RPMI-8226 leukemia; SF-268 CNS; T-47D breast; TK-10 renal; UO-31 renal.
Experiment in all cases: NCI-60 cell line screen, 48 h

Turning to `C=C(Cl)COC(=O)Nc1cccc(Cl)c1`, the TGI in the experiment on ACHN renal, with M14 melanoma, in the experiment with MOLT-4 leukemia, in the experiment on OVCAR-4 ovarian, in the experiment with OVCAR-8 ovarian and in the experiment on RPMI-8226 leukemia was greater than 100 µM each time. Also, the TGI is greater than 100 µM in the experiment on SF-268 CNS, greater than 100 µM with T-47D breast, greater than 100 µM in the experiment with TK-10 renal and 44.9 µM with UO-31 renal.
Consider `Cc1ncc([N+](=O)[O-])n1CCNS(=O)(=O)CCCn1ccnc1[N+](=O)[O-]`, for which the TGI in the experiment with ACHN renal, in the experiment on M14 melanoma, in the experiment on MOLT-4 leukemia, with OVCAR-4 ovarian, in the experiment on OVCAR-8 ovarian and in the experiment with RPMI-8226 leukemia was greater than 100 µM in each case. Further, the TGI with SF-268 CNS, in the experiment on T-47D breast, with TK-10 renal and in the experiment with UO-31 renal was greater than 100 µM each time.
For `O=C1C(Cl)=C(Oc2ccc([N+](=O)[O-])cc2)C(=O)c2c(O)ccc(O)c21`, the TGI is greater than 100 µM with ACHN renal; greater than 69.2 µM in the experiment with M14 melanoma; 25.2 µM in the experiment on MOLT-4 leukemia; greater than 100 µM in the experiment on OVCAR-4 ovarian; greater than 100 µM in the experiment on OVCAR-8 ovarian; greater than 60.1 µM with RPMI-8226 leukemia. Besides, the TGI is greater than 100 µM in the experiment on SF-268 CNS, greater than 77.7 µM in the experiment with T-47D breast, greater than 94 µM with TK-10 renal and greater than 100 µM in the experiment with UO-31 renal.
With `CN1c2ccccc2C(=O)NC12CCN(Cc1ccccc1)CC2`, the TGI in the experiment on ACHN renal, in the experiment on M14 melanoma, with MOLT-4 leukemia, in the experiment with OVCAR-4 ovarian, in the experiment with OVCAR-8 ovarian and in the experiment on RPMI-8226 leukemia was greater than 100 µM in each case. Further, the TGI with SF-268 CNS, in the experiment on T-47D breast, with TK-10 renal and with UO-31 renal was greater than 100 µM throughout.
Turning to `COc1ccc(C2=NN(C(=O)COc3ccc(Cl)cc3)C(O)(c3cc(F)c(Cl)cc3Cl)C2)cc1OC` (centres undefined), the GI50 in the experiment with ACHN renal was 1.63 µM; with M14 melanoma it was 2.18 µM; in the experiment with MOLT-4 leukemia, 1.47 µM; in the experiment on OVCAR-4 ovarian, 2.26 µM; in the experiment with OVCAR-8 ovarian, 5.7 µM; in the experiment with RPMI-8226 leukemia, 1.79 µM. The GI50 in the experiment with SF-268 CNS is 3.91 µM; in the experiment on T-47D breast, 1.51 µM; in the experiment on TK-10 renal, 2.36 µM; in the experiment with UO-31 renal, 2.08 µM. The TGI in the experiment on ACHN renal was 3.28 µM; in the experiment on M14 melanoma, 6.5 µM; with MOLT-4 leukemia it was greater than 20.6 µM; with OVCAR-4 ovarian, 6.97 µM; with OVCAR-8 ovarian, 14.1 µM; in the experiment with RPMI-8226 leukemia, 5.78 µM. The TGI with SF-268 CNS came to 17.4 µM; in the experiment with T-47D breast, 3.29 µM; with TK-10 renal, 5.09 µM; in the experiment with UO-31 renal, 5.14 µM.
For `COC(=O)COc1ccc(/C=C2\N=C(c3ccccc3)N(c3cc(C(F)(F)F)ccc3Cl)C2=O)cc1`, the GI50 with ACHN renal was greater than 100 µM; in the experiment on M14 melanoma, 50.6 µM; in the experiment on MOLT-4 leukemia, 28.6 µM; in the experiment on OVCAR-4 ovarian it was 54.8 µM; with OVCAR-8 ovarian it was 40.4 µM; in the experiment with RPMI-8226 leukemia, 19 µM. The GI50 is 48.4 µM with SF-268 CNS, 82.9 µM in the experiment with T-47D breast, greater than 100 µM in the experiment on TK-10 renal and 27.1 µM in the experiment on UO-31 renal. Besides, the TGI in the experiment on ACHN renal is greater than 100 µM; in the experiment on M14 melanoma, greater than 100 µM; with MOLT-4 leukemia it was 69.1 µM; with OVCAR-4 ovarian it was greater than 100 µM; in the experiment with OVCAR-8 ovarian, greater than 100 µM; in the experiment on RPMI-8226 leukemia it was 46.1 µM. Besides, the TGI in the experiment with SF-268 CNS, in the experiment on T-47D breast, in the experiment with TK-10 renal and in the experiment with UO-31 renal was greater than 100 µM in each case.
For the compound `c1ccc(C(=NNc2nc3ccccc3o2)c2ccccn2)nc1`, the GI50 in the experiment with ACHN renal was 0.0395 µM; in the experiment on M14 melanoma, 0.0418 µM; in the experiment with MOLT-4 leukemia, 0.0316 µM; in the experiment with OVCAR-4 ovarian, 0.0128 µM; in the experiment with OVCAR-8 ovarian it was 0.0389 µM; in the experiment with RPMI-8226 leukemia it was 0.047 µM. Further, the GI50 with SF-268 CNS is 0.0551 µM; in the experiment on TK-10 renal it was 0.0673 µM; in the experiment with UO-31 renal, 0.0427 µM. The TGI in the experiment with MOLT-4 leukemia is greater than 56.5 µM; in the experiment with SF-268 CNS, 22.9 µM and 2.38 µM; with T-47D breast, 12.4 µM and 25.8 µM; with TK-10 renal, > 100 µM and 17.5 µM; with UO-31 renal, 1.18 µM and 3.03 µM.
`CC1(C)OC[C@@H]([C@@]2(CO[Si](C)(C)C(C)(C)C)CC=CC(=O)O2)O1`: the GI50 with ACHN renal was 22.4 µM; with M14 melanoma, 20.9 µM; in the experiment with MOLT-4 leukemia it was 23.7 µM; in the experiment on OVCAR-4 ovarian, 30.7 µM; in the experiment with OVCAR-8 ovarian, 33.9 µM; with RPMI-8226 leukemia, 24.2 µM. Also, the GI50 in the experiment with SF-268 CNS is 29 µM; with T-47D breast, 24.9 µM; in the experiment on TK-10 renal, 18.3 µM; with UO-31 renal, 19.2 µM. The TGI was 51.7 µM in the experiment with ACHN renal; 50.7 µM with M14 melanoma; greater than 100 µM in the experiment with MOLT-4 leukemia; greater than 100 µM with OVCAR-4 ovarian; greater than 100 µM in the experiment with OVCAR-8 ovarian; 80.5 µM in the experiment with RPMI-8226 leukemia. For the same compound, the TGI in the experiment on SF-268 CNS is 89.2 µM; in the experiment with T-47D breast it was greater than 100 µM; in the experiment with TK-10 renal, 40.7 µM; with UO-31 renal, 42.2 µM.
Turning to `N#Cc1ccccc1NC(=O)/C(=N\NC(=O)c1ccncc1)C(c1cnc2ccc([N+](=O)[O-])cc2n1)[N+](=O)[O-]` (centres undefined), the TGI with ACHN renal, in the experiment with M14 melanoma, with MOLT-4 leukemia, with OVCAR-4 ovarian, in the experiment with OVCAR-8 ovarian and in the experiment with RPMI-8226 leukemia was greater than 100 µM throughout. The TGI in the experiment with SF-268 CNS, in the experiment with T-47D breast, in the experiment with TK-10 renal and with UO-31 renal was greater than 100 µM in each case.
As for `CC(=O)C1CC2(c3ccc(C)cc3)C(c3ccc(C)cc3)=C(c3ccc(C)cc3)C1(c1ccc(C)cc1)S2=O` (centres undefined), the GI50 in the experiment on ACHN renal is greater than 100 µM; in the experiment on M14 melanoma it was greater than 100 µM; with MOLT-4 leukemia, greater than 100 µM; with OVCAR-4 ovarian, 79.9 µM; with OVCAR-8 ovarian, 88.2 µM; in the experiment with RPMI-8226 leukemia, 31.1 µM. In addition, the GI50 in the experiment with SF-268 CNS was greater than 100 µM; with T-47D breast, 68 µM; with TK-10 renal, greater than 100 µM; in the experiment with UO-31 renal, greater than 100 µM. The TGI in the experiment on ACHN renal, in the experiment with M14 melanoma, with MOLT-4 leukemia, in the experiment on OVCAR-4 ovarian, in the experiment with OVCAR-8 ovarian and with RPMI-8226 leukemia was greater than 100 µM throughout. Further, the TGI with SF-268 CNS, with T-47D breast, with TK-10 renal and with UO-31 renal was greater than 100 µM in each case.

The values above are taken from PubChem BioAssay (NCI).
